From US10391095B2, “DNA-PK inhibitors” (Vertex Pharmaceuticals Incorporated, priority 2012, dated 2019)

These molecules were tested against DNA-PK (Homo sapiens, UniProt P78527) (assay: DNA-PK inhibition assay (radiometric, 33P-ATP)). Conditions: 100 μM ATP, competitive tight-binding fit.
Assay type: biochemical
Description: Compounds were screened for their ability to inhibit DNA-PK kinase using a standard radiometric assay. Briefly, in this kinase assay the transfer of the terminal ^33P-phosphate in ^33P-ATP to a peptide substrate is interrogated. The assay was carried out in 384-well plates to a final volume of 50 μL per well containing approximately 6 nM DNA-PK, 50 mM HEPES (pH 7.5), 10 mM MgCl2, 25 mM NaCl, 0.01% BSA, 1 mM DTT, 10 μg/mL sheared double-stranded DNA (obtained from Sigma), 0.8 mg/mL DNA-PK peptide ([…] obtained from American Peptide), and 100 μM ATP. Accordingly, compounds of the invention were dissolved in DMSO to make 10 mM initial stock solutions. Serial dilutions in DMSO were then made to obtain the final solutions for the assay. A 0.75 μL aliquot of DMSO or inhibitor in DMSO was added to each well, followed by the addition of ATP substrate solution containing ^33P-ATP (obtained from Perkin Elmer). The reaction was started by the addition of DNA-PK, peptide and ds-DNA. After 45 min, the reaction was quenched with 25 μL of 5% phosphoric acid. The reaction mixture was transferred to MultiScreen HTS 384-well PH plates (obtained from Millipore), allowed to bind for one hour, and washed three times with 1% phosphoric acid. Following the addition of 50 μL of Ultima Gold™ high efficiency scintillant (obtained from Perkin Elmer), the samples were counted in a Packard TopCount NXT Microplate Scintillation and Luminescence Counter (Packard BioScience). The Ki values were calculated using Microsoft Excel Solver macros to fit the data to the kinetic model for competitive tight-binding inhibition.
In the case of `CNC(=O)c1ccc(C(C)CNc2cc(-c3cnc4c(cnn4C4CN(C(C)=O)C4)c3)ncn2)c(OC)c1` (centres unmarked) [Compound 248], the Ki is reported as < 30 nM. For `COc1ccccc1[C@H](C)CNc1cc(-c2cnc3c(cnn3C3CN(C(C)=O)C3)c2)ncn1` [Compound 249], the Ki was < 30 nM. `COC(=O)c1ccc(OC)c(C(C)CNc2cc(-c3ccc(C)nc3)ncn2)c1` (centres unmarked) [Compound 250] was tested, and the Ki was < 30 nM. `CNC(=O)c1ccc([C@H](C)CNc2cc(-c3cnc4c(ccn4C4COC4)c3)ncn2)c(OC)c1` [Compound 252] was tested, and the Ki was < 30 nM. With `CNC(=O)c1ccc([C@H](C)CNc2cc(-c3cnc4c(ccn4CC4CC4)c3)ncn2)c(OC)c1` [Compound 253] the Ki was < 30 nM. With `COc1ccccc1[C@H](C)CNc1cc(-c2ccc(NC3CCN(C)CC3)nc2)ncn1` [Compound 254] the Ki was < 30 nM. For `COc1ccccc1[C@H](C)CNc1cc(-c2ccc(N(C)C)nc2)ncn1` [Compound 255], the Ki was < 30 nM. With `CNC(=O)c1ccc(C(C)CNc2cc(-c3ccc4ncccc4c3)ncn2)c(OC)c1` (centres unmarked) [Compound 256] the Ki was < 30 nM. `COc1sccc1C(C)CNc1cc(-c2ccc(C)nc2)ncn1` (centres unmarked) [Compound 257] was tested, and the Ki was < 30 nM. With `COCCn1ncc2cc(-c3cc(NCC(C)c4ccsc4OC)ncn3)cnc21` (centres unmarked) [Compound 258] the Ki was < 30 nM. For `COc1sccc1C(C)CNc1cc(-c2cnc3c(cnn3CCO)c2)ncn1` (centres unmarked) [Compound 259], the Ki was < 30 nM. In the case of `COCCn1ncc2cc(-c3cc(NCC(C)c4sccc4OC)ncn3)cnc21` (centres unmarked) [Compound 260], the Ki is reported as < 30 nM. In the case of `COc1cscc1C(C)CNc1cc(-c2cnc3c(cnn3CCO)c2)ncn1` (centres unmarked) [Compound 261], the Ki is reported as < 30 nM. For `COc1ccsc1C(C)CNc1cc(-c2cnc3c(cnn3C3CCN(C)CC3)c2)ncn1` (centres unmarked) [Compound 262], the Ki was < 30 nM. For `CNC(=O)c1ccc([C@H](C)CNc2cc(-c3ccc4c(c3)ncn4C)ncn2)c(OC)c1` [Compound 263], the Ki was < 30 nM. In the case of `COc1sccc1C(C)CNc1cc(-c2cnc3c(cnn3C3CCN(C)CC3)c2)ncn1` (centres unmarked) [Compound 264], the Ki is reported as < 30 nM. For `COc1sccc1C(C)CNc1cc(-c2ccc(N3CCN(C)CC3)nc2)ncn1` (centres unmarked) [Compound 265], the Ki was < 30 nM. With `COc1sccc1C(C)CNc1cc(-c2cnc3c(cnn3CC3CC3)c2)ncn1` (centres unmarked) [Compound 266] the Ki was < 30 nM. In the case of `CNC(=O)c1ccc([C@H](C)CNc2cc(-c3ccc4c(ccn4C)c3)ncn2)c(OC)c1` [Compound 268], the Ki is reported as < 30 nM. In the case of `CNC(=O)c1ccc([C@H](C)CNc2cc(-c3cnc4c(ccn4CCO)c3)ncn2)c(OC)c1` [Compound 269], the Ki is reported as < 30 nM. For `Cc1ccc(-c2cc(NCC(C)c3ccc(F)cc3OC3CC3)ncn2)cn1` (centres unmarked) [Compound 270], the Ki was < 30 nM. For `CC(CNc1cc(-c2ccc(N3CCN(C)CC3)nc2)ncn1)c1ccc(F)cc1OC1CC1` (centres unmarked) [Compound 271], the Ki was < 30 nM. With `CNC(=O)c1ccc(C(C)CNc2cc(-c3ccc4c(c3)c(C)nn4CCO)ncn2)c(OC)c1` (centres unmarked) [Compound 272] the Ki was < 30 nM. For `CNC(=O)c1ccc(C(C)CNc2cc(-c3cnc4c(cnn4CC(=O)OC)c3)ncn2)c(OC)c1` (centres unmarked) [Compound 273], the Ki was < 30 nM. `CNC(=O)c1ccc(C(C)CNc2cc(-c3cnc4c(cnn4CC(C)(C)O)c3)ncn2)c(OC)c1` (centres unmarked) [Compound 274] was tested, and the Ki was < 30 nM. `CC(CNc1cc(-c2cnc3c(cnn3CCO)c2)ncn1)c1ccc(F)cc1OC1CC1` (centres unmarked) [Compound 275] was tested, and the Ki was < 30 nM. `CCOC(=O)C(C)(C)n1ncc2cc(-c3cc(NCC(C)c4ccc(C(=O)NC)cc4OC)ncn3)cnc21` (centres unmarked) [Compound 276] was tested, and the Ki was < 30 nM. In the case of `CNC(=O)c1ccc(C(C)CNc2cc(-c3ccc4c(cnn4CCO)c3C)ncn2)c(OC)c1` (centres unmarked) [Compound 277], the Ki is reported as < 30 nM. `CNC(=O)c1ccc(C(C)CNc2cc(-c3ccc4c(cnn4C4COC4)c3C)ncn2)c(OC)c1` (centres unmarked) [Compound 278] was tested, and the Ki was < 30 nM. In the case of `CNC(=O)c1ccc(C(C)CNc2cc(-c3ccc4c(c3)c(C)nn4C3COC3)ncn2)c(OC)c1` (centres unmarked) [Compound 279], the Ki is reported as < 30 nM. In the case of `CNC(=O)c1ccc(C(C)CNc2cc(-c3cc4cnn(C5COC5)c4cc3C)ncn2)c(OC)c1` (centres unmarked) [Compound 283], the Ki is reported as < 30 nM. In the case of `CNC(=O)c1ccc(C(C)CNc2cc(-c3cnc4c(cnn4C(C)(C)C(=O)O)c3)ncn2)c(OC)c1` (centres unmarked) [Compound 284], the Ki is reported as < 30 nM. With `CNC(=O)c1ccc([C@H](C)CNc2cc(-c3cnc4c(cnn4CC(C)(C)O)c3)ncn2)c(OC)c1` [Compound 285] the Ki was < 30 nM. `CNC(=O)c1ccc([C@H](C)CNc2cc(-c3cnc4c(cnn4C4CCN(C)CC4)c3)ncn2)c(OC)c1` [Compound 286] was tested, and the Ki was < 30 nM. `Cc1ccc(-c2cc(NCC(C)c3ccncc3OC3CC3)ncn2)cn1` (centres unmarked) [Compound 287] was tested, and the Ki was < 30 nM. With `Cc1ccc(-c2cc(NCC(C)c3ccnc4c3OCC4)ncn2)cn1` (centres unmarked) [Compound 289] the Ki was < 30 nM. With `COc1ccc(N)cc1C(C)CNc1cc(-c2ccc(C)nc2)ncn1` (centres unmarked) [Compound 290] the Ki was < 30 nM. With `CNC(=O)c1ccc([C@H](C)CNc2cc(-c3ccc4c(cnn4C)c3)ncn2)c(OC)c1` [Compound 293] the Ki was < 30 nM. With `CNC(=O)c1ccc([C@H](C)CNc2cc(-c3ccc4c(cnn4CC4CC4)c3)ncn2)c(OC)c1` [Compound 294] the Ki was < 30 nM. In the case of `COc1cc(C(=O)NCC(F)F)ccc1C(C)CNc1cc(-c2ccc(C)nc2)ncn1` (centres unmarked) [Compound 296], the Ki is reported as < 30 nM. For `Cc1ccc(-c2cc(NCC(C)c3cncnc3OC3CCC3)ncn2)cn1` (centres unmarked) [Compound 299], the Ki was < 30 nM. For `Cc1ccc(-c2cc(NCC(C)c3ccc(F)c4cccnc34)ncn2)cn1` (centres unmarked) [Compound 303], the Ki was < 30 nM. In the case of `CNC(=O)c1ccc([C@H](C)CNc2cc(-c3cnc(NC)nc3)ncn2)c(OC)c1` [Compound 304], the Ki is reported as < 30 nM. In the case of `CNC(=O)c1ccc(C(C)CNc2cc(-c3ccc(OC4COC4)nc3)ncn2)c(OC)c1` (centres unmarked) [Compound 307], the Ki is reported as < 30 nM. `CNC(=O)c1ccc([C@H](C)CNc2cc(-c3cnc(C)nc3)ncn2)c(OC)c1` [Compound 308] was tested, and the Ki was < 30 nM. `CNC(=O)c1ccc([C@H](C)CNc2cc(-c3ccc(C(=O)N4CCN(C)CC4)cc3)ncn2)c(OC)c1` [Compound 309] was tested, and the Ki was < 30 nM. With `CNC(=O)c1ccc([C@H](C)CNc2cc(-c3ccc4c(c3)CC(=O)N4)ncn2)c(OC)c1` [Compound 310] the Ki was < 30 nM. In the case of `CNC(=O)c1ccc([C@H](C)CNc2cc(-c3ccc4c(c3)NC(=O)C4)ncn2)c(OC)c1` [Compound 311], the Ki is reported as < 30 nM. With `CNC(=O)c1ccc([C@H](C)CNc2cc(-c3ccc4c(c3)CNC4=O)ncn2)c(OC)c1` [Compound 312] the Ki was < 30 nM. `CNC(=O)c1ccc([C@H](C)CNc2cc(-c3ccc(N4CCCC4=O)cc3)ncn2)c(OC)c1` [Compound 313] was tested, and the Ki was < 30 nM. In the case of `CNC(=O)c1ccc([C@H](C)CNc2cc(-c3ccc4c(c3)OCC(=O)N4)ncn2)c(OC)c1` [Compound 314], the Ki is reported as < 30 nM. With `CNC(=O)c1ccc([C@H](C)CNc2cc(-c3ccc4[nH]c(=O)[nH]c4c3)ncn2)c(OC)c1` [Compound 315] the Ki was < 30 nM. `CNC(=O)c1ccc([C@H](C)CNc2cc(-c3ccc4scnc4c3)ncn2)c(OC)c1` [Compound 316] was tested, and the Ki was < 30 nM. For `CNC(=O)c1ccc([C@H](C)CNc2cc(-c3ccc(NC(C)=O)cc3)ncn2)c(OC)c1` [Compound 317], the Ki was < 30 nM. For `CNC(=O)c1ccc([C@H](C)CNc2cc(-c3ccc(C(=O)NC4CC4)cc3)ncn2)c(OC)c1` [Compound 318], the Ki was < 30 nM. With `CNC(=O)c1ccc([C@H](C)CNc2cc(-c3ccc(C(C)=O)cc3)ncn2)c(OC)c1` [Compound 319] the Ki was < 30 nM. In the case of `CNC(=O)c1ccc(C(C)CNc2cc(-c3ccc(OC)nc3)ncn2)c(OC)c1` (centres unmarked) [Compound 320], the Ki is reported as < 30 nM. `CNC(=O)c1ccc(C(C)CNc2cc(-c3ccc(OCC4CCC4)nc3)ncn2)c(OC)c1` (centres unmarked) [Compound 321] was tested, and the Ki was < 30 nM. For `CCOc1ccc(-c2cc(NCC(C)c3ccc(C(=O)NC)cc3OC)ncn2)cn1` (centres unmarked) [Compound 322], the Ki was < 30 nM. In the case of `CNC(=O)c1ccc(C(C)CNc2cc(-c3ccc(OCCSC)nc3)ncn2)c(OC)c1` (centres unmarked) [Compound 323], the Ki is reported as < 30 nM. `CNC(=O)c1ccc(C(C)CNc2cc(-c3ccc(OC(C)C)nc3)ncn2)c(OC)c1` (centres unmarked) [Compound 324] was tested, and the Ki was < 30 nM. With `CNC(=O)c1ccc(C(C)CNc2cc(-c3ccc(OCCS(C)(=O)=O)nc3)ncn2)c(OC)c1` (centres unmarked) [Compound 325] the Ki was < 30 nM. For `CNC(=O)c1ccc(C(C)CNc2cc(-c3ccc(OCC4CC4)nc3)ncn2)c(OC)c1` (centres unmarked) [Compound 326], the Ki was < 30 nM. In the case of `CNC(=O)c1ccc(C(C)CNc2cc(-c3ccc(OC4CN(C(C)=O)C4)nc3)ncn2)c(OC)c1` (centres unmarked) [Compound 327], the Ki is reported as < 30 nM. `CNC(=O)c1ccc([C@H](C)CNc2cc(-c3ccc(F)nc3)ncn2)c(OC)c1` [Compound 328] was tested, and the Ki was < 30 nM. `Cc1ccc(-c2cc(NCC(C)c3ccnc4cccnc34)ncn2)cn1` (centres unmarked) [Compound 331] was tested, and the Ki was < 30 nM. In the case of `Cc1ccc(-c2cc(NCC(C)c3cccc4nccnc34)ncn2)cn1` (centres unmarked) [Compound 332], the Ki is reported as < 30 nM. For `Cc1ccc(-c2cc(NCC(C)c3cccc4scnc34)ncn2)cn1` (centres unmarked) [Compound 333], the Ki was < 30 nM. In the case of `CNC(=O)c1ccc(C(C)CNc2cc(-c3ccc(C4(CO)CC4)cc3)ncn2)c(OC)c1` (centres unmarked) [Compound 338], the Ki is reported as < 30 nM. With `CNC(=O)c1ccc(C(C)CNc2cc(-c3ccc(CCO)cc3)ncn2)c(OC)c1` (centres unmarked) [Compound 339] the Ki was < 30 nM. In the case of `CNC(=O)c1ccc(C(C)CNc2cc(-c3ccc(CCOC)cc3)ncn2)c(OC)c1` (centres unmarked) [Compound 340], the Ki is reported as < 30 nM.
